Entries after “also recorded” stand apart in the source; their conditions may differ.
Assays:
[1] = toxicity (isolated mice, intraperitoneal); assay type: in vivo; conditions: mouse, in vivo, ip, isolated mice
Procedure: (§1) The following text summarises a part of the results of the tests which were carried out with the products according to the invention, these products (unless otherwise stated) being administered intraperitoneally, in suspension in a gum solution (gum arabic), in a volume of 20 ml/kg in the case of mice and of 5 ml/kg in the case of rats.

[2] = system: mice; test: toxicity (isolated mice, intraperitoneal); assay type: in vivo; conditions: mice, i.p., at the doses mentioned above (64-1,024 mg/kg)
Procedure: as §1

[3] = toxicity in mice in groups; conditions: mouse, in vivo, ip
Procedure: as §1
The LD50 for intraperitoneal administration are as follows: […]

[4] = system: rats; test: interaction with apomorphine (stereotype behaviour in rats); assay type: in vivo
Procedure: as §1
Batches of six rats are each given a subcutaneous injection of apomorphine (0.5 mg/kg) 30 minutes after the administration of CRL 40,373.
Batches of 6 rats are given a subcutaneous injection of 0.5 mg/kg of apomorphine 30 minutes after the administration of CRL 40,385.

[5] = system: rats; test: interaction with amphetamine (stereotypies in rats); assay type: in vivo
Procedure: as §1
30 minutes after the administration of CRL 40,373, amphetamine is injected intraperitoneally at a dose of 2 mg/kg.
Thirty minutes after the administration of CRL 40,385 the rats are given an intraperitoneal injection of 2 mg/kg of amphetamine (6 animals per dose).

[6] = system: mice; test: interaction with reserpine (hypothermia, ptosis); assay type: in vivo
[7] = system: mice; test: interaction with oxotremorine (temperature, trembling, peripheral cholinergic symptoms); assay type: in vivo
[8] = system: mice; test: four-plate test; assay type: in vivo, mice (EVIC CEBA strain); conditions: mice, i.p.
Procedure: as §1
(§2) The test is carried out on batches of 10 sensitive mice (EVIC CEBA strain), 30 minutes after the administration of CRL 40,373.
(§3) Batches of 10 mice are subjected to the test thirty minutes after having received CRL 40,385.

[9] = system: mice; test: traction (motor incoordination); assay type: in vivo, mice (EVIC CEBA strain); conditions: i.p.
[10] = system: mice; test: electrical shock (convulsing effects); assay type: in vivo, mice (EVIC CEBA strain); conditions: mice, i.p., large dose
Procedure: as §1, §2, §3

[11] = system: mice; test: spontaneous motility (actimeter); assay type: in vivo; conditions: i.p.
Procedure: as §1
Thirty minutes after having been given CRL 40,373, the mice (6 per dose, 12 comparison animals) are placed in an actimeter, where their motility is recorded for half an hour.
Thirty minutes after having been given CRL 40,385, the mice are placed in actimeters where their motility is recorded for half an hour.

[12] = system: mice; test: motility reduced by habituation to a cage (residual motility); assay type: in vivo; conditions: i.p., from 32 mg/kg upwards
Procedure: as §1
Mice which have remained for 18 hours in the actimeters are given CRL 40,373. They are immediately replaced in their cages and, after a period of half an hour, their motility is recorded for 30 minutes (6 animals per dose, 12 comparison animals).
After remaining for 18 hours in the actimeters, the mice receive CRL 40,385. Immediately afterwards they are replaced in their cage and half an hour afterwards the recording of the motility starts and is continued for 30 minutes.

[13] = system: mice; test: motility reduced by hypoxia treatment (motor recovery); assay type: in vivo; conditions: mice, i.p.
[14] = system: mice; test: inter-group aggressiveness (number of fights); assay type: in vivo; conditions: mice, i.p.
Procedure: as §1
After three weeks' residence in each of the halves of a cage divided by an opaque partition, the mice receive CRL 40,373 thirty minutes before being brought together by withdrawing the partition.
After 18 days' residence on either side of a partition separating their cage in the middle, groups of 3 mice receive CRL 40,385 and are brought together half an hour later by withdrawing the partition, and the number of fights which take place in the course of 15 minutes is noted.

[15] = system: catalepsy induced by prochlorperazine; test: anticataleptic effect (prochlorperazine-induced catalepsy); assay type: in vivo; conditions: i.p., 256 mg/kg
Procedure: CRL 40,385 or amantadine are administered intraperitoneally 4 hours and 30 minutes after the injection of prochlorperazine (12.5 mg/kg administered intraperitoneally). The catalepsy is assessed every 30 minutes by the plug test (9 cm), the four plug test, the test using parallel bars and the test of crossing the paws on the same side.

[16] = system: rats; test: prolonged conditioning to take avoiding action (shuttle box); assay type: in vivo
Excerpt: Rats placed in a shuttle box are conditioned to avoid an electric shock by changing sides. The shock is preceded by a sound and light stimulus lasting 3 seconds, which ceases when sides are changed or after 8 seconds. The sequence is repeated every 20 seconds. Animals conditioned for several tens of minutes show a percentage of avoidance which is close to 100%. They continue to be subjected to the stimulus […] and gradually they reach a state in which they are no longer able to change sides during the period of 3 seconds during which no shock is delivered.
As a first approximation, such an effect can be likened to a resumption of conditioned activity in a tired animal.
Rats placed in a "shuttle box" are conditioned to avoid an electric shock lasting 5 seconds, by changing sides. The shock is preceded, for 3 seconds, by a sound and light stimulus which ceases when the rat changes side, or at the end of 8 seconds. The sequence repeats every 20 seconds. […] They continue to be subjected to the stimulus every 20 seconds and gradually they no longer succeed in avoiding the shock.
CRL 40,438 is then administered and any resumption of the avoidance movements is followed until the effect ceases.

[17] = system: awake rats with spontaneous hypertension; test: hypotensive action in awake rats with spontaneous hypertension; assay type: in vivo; conditions: 100 mg/kg orally
Procedure: In the tests reported below, CRL 40,385 was administered in suspension in a solution of gum arabic, in a volume of 2 ml/kg. The hypotensive action was studied in awake rats with spontaneous hypertension. One batch of 7 rats is given 100 mg/kg of CRL 40,385 orally, followed, 2 hours later, by a fresh dose of 100 mg/kg of this product.

[18] = system: central nervous system; test: psychopharmacological study / behaviour; assay type: in vivo, mice; conditions: mouse, in vivo
[19] = system: man; test: clinical use in man; assay type: in vivo
[20] = system: rats; test: interaction with methylphenidate (stereotypies); assay type: in vivo; conditions: species not given
[21] = system: catalepsy; test: catalepsy, alone and after a neuroleptic agent; assay type: in vivo

O=C(CC(=O)N(c1ccccc1)c1ccccc1)NO [CRL 40,385, α-(N,N-Diphenylcarbamoyl)-acetohydroxamic acid]
LD50 [1]: 1500 mg/kg | mortality [2]: no mortality whatsoever | LD50 ([3]; mice in groups): 1050 mg/kg | selectivity ratio ([3]; read-out: ratio LD50 (isolated mice)/LD50 (mice in groups)): 1.43 | apomorphine-induced stereotypies ([4]; rats, i.p., large dose, apomorphine 0.5 mg/kg s.c.): increase in the duration of the stereotypies induced by apomorphine | amphetamine-induced stereotypies ([5]; i.p., 256 mg/kg): lengthening of the duration of the amphetamine-induced stereotypies | reserpine-induced ptosis ([6]; i.p.): does not modify the intensity of the palpebral ptosis induced by reserpine | reserpine-induced hypothermia ([6]; i.p., 64, 128 and 256 mg/kg, reserpine 2.5 mg/kg i.p.): moderate antagonism towards reserpine-induced hypothermia | peripheral cholinergic symptoms of oxotremorine ([7]; mice, i.p.): does not modify the increase in salivation, lachrymation and defaecation | oxotremorine-induced trembling ([7]; mice, i.p., 128 mg/kg and above all 512 mg/kg, oxotremorine 0.5 mg/kg i.p.): a reduction in the intensity of the trembling movements produced by oxotremorine | temperature (oxotremorine-induced hypothermia) ([7]; mice, i.p., 32 and 128 mg/kg, oxotremorine 0.5 mg/kg i.p.): very partial antagonism against the hypothermia produced by oxotremorine | number of incorrect moves (four-plate test) [8]: does not produce an increase in the number of incorrect moves | motor incoordination / incapacity [9]: does not cause a major motor deficiency | convulsing effects of the electrical shock [10]: counteracts the convulsing effects of the electrical shock | spontaneous motility ([11]; mice, 128 and 256 mg/kg): moderate increase in the spontaneous motor activity | spontaneous motility ([11]; mice, dose larger than 128 and 256 mg/kg): effect disappears | motility reduced by habituation to the cage [12]: causes a resumption of activity in animals habituated to their cage | minimal effective dose ([13]; Mus musculus, ip, read-out: dose at which improvement of motor recovery after hypoxia appears): 32 mg/kg | motor recovery after hypoxia/anoxia by pressure reduction ([13]; 32 mg/kg increasing up to 512 mg/kg): causes an improvement in the motor recovery of mice | inter-group aggressiveness [14]: reduces the aggressiveness | intensity of anticataleptic effect compared with amantadine [15]: less intense than that of an 8 times smaller dose of amantadine | cataleptigenic action of prochlorperazine ([15]; prochlorperazine 12.5 mg/kg i.p.): counteracts the cataleptigenic action of prochlorperazine | resumption of avoiding actions (prolonged avoidance test) [16]: causes a resumption of avoiding actions in animals | hypotensive effect [17]: hypotensive effect | arterial pressure (minimum) ([17]; 4 hours after second administration, from 166 mm Hg): 142 mm Hg | pulse rate ([17]; after first administration, from 364): 334 beats/minute | pulse rate change ([17]; after second administration): does not vary | time to minimum arterial pressure ([17]; after second administration): 4 h | reduction of arterial pressure ([17]; after second administration, statistically significant): 13% | average reduction of arterial pressure ([17]; first administration): 10% | reduction of pulse rate ([17]; first administration, statistically significant): 8% | body temperature effect (product alone) [18]: does not have a hypothermic action | psychopharmacological profile / conclusion [18]: the most marked property is the anti-fatigue activity; also recorded: Some of its effects recall an anti-depressant type of activity, and others recall a psychostimulant type of activity; also recorded: psycho-stimulant properties | clinical result ([19]; tablet or pill 100 mg, 2 to 3 per day): used clinically with success for anti-fatigue treatment

O=C(CN1C(=O)NC(c2ccccc2)(c2ccccc2)C1=O)NO [CRL 40,382, 3-(5,5-Diphenyl-hydantoinyl)-acetohydroxamic acid]
effect of apomorphine (stereotypies) ([4]; species not given): does not counteract the effect of apomorphine | amphetamine-induced stereotypies ([5]; species not given): antagonism to the stereotypies induced by amphetamine | other effects of amphetamine (hypermotility, group toxicity) ([5]; species not given): without altering the other effects of this substance (hypermotility, group toxicity) | effects of oxotremorine ([7]; mouse, in vivo): absence of antagonism to the effects of oxotremorine | motor incoordination / incapacity [9]: absence of catalepsy and of motor incapacity | spontaneous motility [11]: moderate hypomotility | psychopharmacological profile / conclusion [18]: antipsychotic activity associated with a moderate sedative effect | effect of methylphenidate (stereotypies) [20]: does not counteract the effect of apomorphine and of methylphenidate | clinical result ([19]; tablet 250 mg, 2 to 3 tablets per day): used clinically with success as a sedative | cataleptigenic effects of a neuroleptic agent ([21]; after a preliminary dose of a neuroleptic agent): boosts the cataleptigenic effects of a preliminary dose of a neuroleptic agent | catalepsy ([21]; in vivo): does not in itself cause catalepsy; also recorded: absence of catalepsy
